The target of one assay is T1, Axl (Homo sapiens, UniProt P30530).
T1 sequence (P30530 26-894): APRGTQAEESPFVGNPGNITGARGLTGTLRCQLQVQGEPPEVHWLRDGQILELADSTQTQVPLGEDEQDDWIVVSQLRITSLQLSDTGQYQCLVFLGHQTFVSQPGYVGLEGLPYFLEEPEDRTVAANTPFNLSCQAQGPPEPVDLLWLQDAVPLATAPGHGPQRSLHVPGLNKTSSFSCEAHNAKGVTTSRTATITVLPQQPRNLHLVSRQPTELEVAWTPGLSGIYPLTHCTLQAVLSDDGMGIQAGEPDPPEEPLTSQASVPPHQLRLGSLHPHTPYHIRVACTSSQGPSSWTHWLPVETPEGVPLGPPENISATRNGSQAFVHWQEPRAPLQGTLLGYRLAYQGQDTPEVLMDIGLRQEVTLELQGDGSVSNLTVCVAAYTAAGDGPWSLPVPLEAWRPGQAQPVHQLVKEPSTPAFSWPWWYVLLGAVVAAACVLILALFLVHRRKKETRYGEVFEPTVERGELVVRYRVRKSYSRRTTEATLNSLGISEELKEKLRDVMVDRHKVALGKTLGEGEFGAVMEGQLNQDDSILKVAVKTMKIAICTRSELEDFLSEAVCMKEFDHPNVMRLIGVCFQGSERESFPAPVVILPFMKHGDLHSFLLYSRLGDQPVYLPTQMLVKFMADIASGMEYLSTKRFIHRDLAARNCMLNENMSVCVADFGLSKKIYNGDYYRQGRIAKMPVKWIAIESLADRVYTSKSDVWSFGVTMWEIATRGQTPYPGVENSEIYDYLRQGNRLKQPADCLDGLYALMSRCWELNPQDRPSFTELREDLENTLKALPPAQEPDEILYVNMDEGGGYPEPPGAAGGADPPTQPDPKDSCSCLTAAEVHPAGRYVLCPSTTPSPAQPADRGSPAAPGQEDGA
Description: Biochemical potency, HTRF KinEASE-TK kinase assay. Particulars: 5 nM AXL, 700 μM ATP. Also noted: purchased Invitrogen. On the procedure:
Measurement of Biochemical Compound Potency of Axl Inhibitors
Purified recombinant human AXL, TYRO3 and MER proteins were purchased from Invitrogen™. 10 nM AXL, 2 nM TYRO3 or MER were incubated with varying concentrations of compounds in 50 mM HEPES, pH 7.4, 10 mM MgCl2, 0.01% BSA, 1 mM DTT and 2% DMSO in a total volume of 20 μl in a 384-well microplate (Corning™ #3640) at RT for 1 h. The AXL, TYRO3 and MER enzymatic reaction was initiated by transferring 10 μl of enzyme and compound mixture into 10 μl of 1.6 μM TK Substrate-biotin (HTRF® KinEASE-TK kit, Cisbio) and 1400 μM ATP pre-incubated in 50 mM HEPES, pH 7.4, 10 mM MgCl2, 0.01% BSA, 1 mM DTT in a 384-well microplate (Corning™ #3640) at RT, giving the final reaction conditions: 5 nM AXL, 1 nM TYRO3 or MER, 800 nM TK Substrate-biotin and 700 μM ATP in 50 mM HEPES, pH 7.4, 10 mM MgCl2, 0.01% BSA, 1 mM DTT and 1% DMSO with varying concentrations of compounds. Following 2 h incubation at RT, the AXL, TYRO3 and MER enzymatic reaction was stopped by transfer of 10 μl of reaction into 10 μl of detection mix (400 nM Streptavidin-XL665, 200-fold dilution TK Antibody-Cryptate and detection buffer, HTRF® KinEASE-TK kit, Cisbio) in a white 384-well microplate (Perkin Elmer, OptiPlate 384). After 1 h incubation at RT, the plate was put into a plate reader (Evision) to read at 665/620 nm (acceptor/donor) for HTRF. The value of the DMSO blank (MIN inhibition=100% activity) was used as a negative control. The positive control was established by adding 5 μl of enzyme and DMSO mixture into 10 μl of detection mix followed by addition of 5 μl of TK Substrate-biotin and ATP mixture (MAX inhibition=0% activity). To calculate the percent activity, Equation 1 was used. Ratio665/620 is the value at a given compound concentration: […]
On the technique in general: TR-FRET usually uses a lanthanide donor and a delayed reading to cut background.

A further assay addresses T2, p-AXL (Homo sapiens, UniProt P30530).
T2 construct: expressed in transfected cells; host or cells: HEK293T
T2 sequence (P30530 26-894): T1 sequence (P30530 26-894)
Description: Axl phosphorylation inhibition ELISA in HEK293T cells transfected with NanoLuc-tagged AXL. The note with it: 1 h compound incubation, media (OptiMEM). Type of assay: cell-based. On the procedure:
[formula] Measurement of Axl Phosphorylation Inhibition
The dose-response assays were performed in S-Bio PrimeSurface® 3D culture: Ultra-low Attachment Plates: 384 well, U bottom (#MS-9384UZ) containing 400 nL of 22 serial 2-fold compound dilutions using Bravo and Echo. ELISA assay was performed on Pierce™ streptavidin coated high capacity 384-well white plates (Thermofisher Cat #15505). The plates were coated overnight at 4° C. with 50 μl/well of biotinlyated phospho-tyrosine mouse mAb (Cell Signaling Technology, 9417s).
HEK293T cells were grown in DMEM containing 10% FBS, 1% Pen/Strep, 1% G-Max. A day before the assay, cells were transiently transfected with 6.8 μg of NanoLuc-tagged AXL plasmid DNA and 8 μg of carrier DNA using FuGENE® HD Transfection Reagent (Promega) according to manufacturer's instructions. On the day of the assay, transfected cells were harvested and resuspended in OptiMEM. 70,000 cells/well were added to the compounds containing assay plates. After a gentle mix and a short spin, the plates were incubated at 37° C. After 1 h, the cells were lysed followed by a brief centrifugation and 30 min of shaking at 300 rpm. Meanwhile, the antibody coated plates were brought to room temperature and then were washed ten times in PBS with 0.05% Tween 20 (ELISA-wash buffer). 50 μl/well of cell lysate was transferred to the ELISA plates and shaken for 2 hours. After washing again with the ELISA wash buffer, the samples were diluted with 25 μl of PBS. The captured NanoLuc tagged p-AXL was detected using Nano-Glo® Luciferase Assay System (Promega) and manufacturer's instruction. The luminescence signal was measured using Envision plate reader. IC50 values were determined by fitting the data to a standard 4-parameter logistic equation.
For orientation: An ELISA detects its analyte on a solid surface through an enzyme-linked reagent.

The values below come from patent US12195482B1 (Arcus Biosciences, Inc., priority 2022, dated 2025).

Each structure is given as a SMILES string.

In the case of `Cc1ccc(C(C)(C)O)nc1-c1ccc(-c2c[nH]c3ncc(-c4ccc5c(c4)CC[C@@H](N4C6COCC4C6)CC5)cc23)cc1` [Example 8, 2-[5-Methyl-6-(4-{5-[(7S)-7-{3-oxa-6-azabicyclo[3.1.1]heptan-6-yl}-6,7,8,9-tetrahydro-5H-benzo[7]annulen-2-yl]-1H-pyrrolo[2,3-b]pyridin-3-yl}phenyl)pyridin-2-yl]propan-2-ol], the IC50 (usually the concentration at which inhibition is half-maximal) against Axl was less than 100 nM; against p-AXL, 100 to 1000 nM.
Consider `COCCN1CCc2ccc(-c3cnc4[nH]nc(-c5ccc(-c6ncccc6C)cc5)c4c3)cc2CC1` [Example 15, 3-(2-Methoxyethyl)-7-{3-[4-(3-methylpyridin-2-yl)phenyl]-1H-pyrazolo[3,4-b]pyridin-5-yl}-2,3,4,5-tetrahydro-1H-3-benzazepine], for which the IC50 was less than 100 nM at Axl and 100 to 1000 nM on p-AXL.
The corresponding values for `Cc1ccc[n+]([O-])c1-c1ccc(-c2c[nH]c3ncc(-c4ccc5c(c4)CC[C@@H](N4C6COCC4C6)CC5)cc23)cc1` [Example 16, 3-Methyl-2-(4-{5-[(7S)-7-{3-oxa-6-azabicyclo[3.1.1]heptan-6-yl}-6,7,8,9-tetrahydro-5H-benzo[7]annulen-2-yl]-1H-pyrrolo[2,3-b]pyridin-3-yl}phenyl)pyridin-1-ium-1-olate] are less than 100 nM and less than 100 nM.
The matching figures for `Cc1cccnc1-c1ccc(-c2c[nH]c3nnc(-c4ccc5c(c4)CC[C@@](C)(N4CCC[C@H]4C)CC5)cc23)cc1` [Example 18, 3-[(7S)-7-Methyl-7-[(2R)-2-methylpyrrolidin-1-yl]-5,6,8,9-tetrahydrobenzo[7]annulen-3-yl]-5-[4-(3-methylpyridin-2-yl)phenyl]-7H-pyrrolo[2,3-c]pyridazine]: less than 100 nM and less than 100 nM.
As for `Cc1cccnc1-c1ccc(-c2n[nH]c3ncc(-c4ccc5c(c4)CCC(N4CCCC4)C5)cc23)cc1` (centres unmarked) [Example 19, 3-Methyl-2-(4-{5-[6-(pyrrolidin-1-yl)-5,6,7,8-tetrahydronaphthalen-2-yl]-1H-pyrazolo[3,4-b]pyridin-3-yl}phenyl)pyridine], the IC50 at Axl was less than 100 nM; against p-AXL, 100 to 1000 nM.
The matching figures for `Cc1cc(=O)n(C)nc1-c1ccc(-c2c[nH]c3ncc(-c4ccc5c(c4)CC[C@@H](N4C6COCC4C6)CC5)cc23)cc1` [Example 20, 2,5-Dimethyl-6-(4-{5-[(7S)-7-{3-oxa-6-azabicyclo[3.1.1]heptan-6-yl}-6,7,8,9-tetrahydro-5H-benzo[7]annulen-2-yl]-1H-pyrrolo[2,3-b]pyridin-3-yl}phenyl)-2,3-dihydropyridazin-3-one]: less than 100 nM and less than 100 nM.
The corresponding values for `Cc1cccnc1-c1ccc(-c2n[nH]c3ncc(-c4ccc5c(c4)CCN(C4CCCC4)CC5)cc23)cc1` [Example 24, 3-Cyclopentyl-7-{3-[4-(3-methylpyridin-2-yl)phenyl]-1H-pyrazolo[3,4-b]pyridin-5-yl}-2,3,4,5-tetrahydro-1H-3-benzazepine] are less than 100 nM and 100 to 1000 nM.
The corresponding values for `Cc1cccnc1-c1nnc(-c2n[nH]c3ncc(-c4ccc5c(c4)CC[C@@H](N4C6COCC4C6)CC5)cc23)o1` [Example 25, 6-[(7S)-2-{3-[5-(3-Methylpyridin-2-yl)-1,3,4-oxadiazol-2-yl]-1H-pyrazolo[3,4-b]pyridin-5-yl}-6,7,8,9-tetrahydro-5H-benzo[7]annulen-7-yl]-3-oxa-6-azabicyclo[3.1.1]heptane] are less than 100 nM and less than 100 nM.
As for `Cc1cccnc1-n1cc(-c2c[nH]c3ncc(-c4ccc5c(c4)CC[C@@H](N4C6COCC4C6)CC5)cc23)cn1` [Example 27, 6-[(7S)-2-{3-[1-(3-Methylpyridin-2-yl)-1H-pyrazol-4-yl]-1H-pyrrolo[2,3-b]pyridin-5-yl}-6,7,8,9-tetrahydro-5H-benzo[7]annulen-7-yl]-3-oxa-6-azabicyclo[3.1.1]heptane], the IC50 against Axl and on p-AXL was less than 100 nM each time.
With `Cc1cc(F)cnc1-c1ccc(-c2c[nH]c3ncc(-c4ccc5c(c4)CC[C@@](C)(N4CCC[C@H]4C)CC5)cc23)cc1` [Example 34, 3-[4-(5-Fluoro-3-methylpyridin-2-yl)phenyl]-5-[(7S)-7-methyl-7-[(2R)-2-methylpyrrolidin-1-yl]-5,6,8,9-tetrahydrobenzo[7]annulen-3-yl]-1H-pyrrolo[2,3-b]pyridine], the IC50 on Axl and against p-AXL was less than 100 nM throughout.
Take `Cc1cc(F)cnc1-c1ccc(-c2c[nH]c3ncc(-c4ccc5c(c4)CC[C@@H](N4C6COCC4C6)CC5)cc23)nc1` [Example 35, 6-[(7S)-3-[3-[5-(5-Fluoro-3-methylpyridin-2-yl)pyridin-2-yl]-1H-pyrrolo[2,3-b]pyridin-5-yl]-6,7,8,9-tetrahydro-5H-benzo[7]annulen-7-yl]-3-oxa-6-azabicyclo[3.1.1]heptane]: the 50% inhibitory concentration (IC50) against Axl and at p-AXL was less than 100 nM throughout.
For `Cc1cccnc1-c1ccc(-c2c[nH]c3nnc(-c4ccc5c(c4)CC[C@@H](N4C6COCC4C6)CC5)cc23)cc1` [Example 36, 6-[(7S)-3-[5-[4-(3-Methylpyridin-2-yl)phenyl]-7H-pyrrolo[2,3-c]pyridazin-3-yl]-6,7,8,9-tetrahydro-5H-benzo[7]annulen-7-yl]-3-oxa-6-azabicyclo[3.1.1]heptane], the IC50 was less than 100 nM at Axl and more than 1000 nM against p-AXL.
As for `Cc1cccnc1-c1cnc(-c2c[nH]c3ncc(-c4ccc5c(c4)CC[C@@H](N4C6COCC4C6)CC5)cc23)nc1` [Example 37, 6-[(7S)-3-[3-[5-(3-Methylpyridin-2-yl)pyrimidin-2-yl]-1H-pyrrolo[2,3-b]pyridin-5-yl]-6,7,8,9-tetrahydro-5H-benzo[7]annulen-7-yl]-3-oxa-6-azabicyclo[3.1.1]heptane], the IC50 at Axl and at p-AXL was less than 100 nM each time.
